Here are results for one compound from publication PMC10349806 (Nature Communications, 2023).

Values joined by “and” are separate entries in the source; they are usually repeats but may differ in a detail not shown here. Equal values may be shown once.

One experiment has as its system PfCRT variant F203A. Nature of the experiment: CQ uptake assay, oocytes expressing F203A. It is filed as cell-based, Plasmodium falciparum. The procedure: (§1) Site-directed mutagenesis of PfCRT^Dd2 was performed as described using the megaprimer method with overlap extension[21],[54]. The primer pairs used are listed in Supplementary Table 6. Please note that a codon-optimized and oocyte-adapted version of PfCRT^Dd2 was used[22] (Supplementary Fig. 16). The resulting DNA fragment was cloned into the SP64T expression vector and verified by sequencing.
(§2) Oocytes were obtained as described previously. Briefly, adult (>2 years old) female X. laevis frogs (NASCO) were anesthetized in a cooled solution of ethyl 3-amino benzoate methanesulfonate (0.1%, w/v), followed by a surgical removal of parts of the ovary. The ovary lobes were carefully dissected and small pieces of oocytes were incubated in Ca^2+-free ND96 buffer (96 mM NaCl, 2 mM KCl, 1 mM MgCl2 buffered with 5 mM HEPES/NaOH, pH 7.5) supplemented with collagenase D (0.1%, w/v; Roche), BSA (0.5%, w/v), and 9 mm Na2HPO4 at 18 °C for 14-16 h while gentle shaking. After incubation, the oocytes were carefully washed several times with ND96 buffer (96 mM NaCl, 2 mM KCl, 1.8 mM CaCl2, 1 mM MgCl2 buffered with 5 mM HEPES/NaOH, pH 7.5) supplemented with 100 mg l^−1 gentamycin). Defolliculated and healthy-looking stage V-VI oocytes were manually selected for RNA microinjection. The RNA was generated as following: The codon-optimized sequences of PfCRT variants were cloned into the pSP64T expression vector. After vector linearization using the restriction endonucleases BamHI or SalI (New England Biolabs), transcription was performed using the in vitro SP6 mMessage mMachine Kit (Ambion)[34]. The obtained RNA was kept at −80 °C and diluted with nuclease-free water to a concentration of 0.6 μg μl^−1. Precision-bore glass capillary tubes (3.5-inch glass capillaries; Drummond Scientific Co.) were pulled on a vertical puller (P-87 Flaming/Brown micropipette puller, Sutter Instrument Co.), graduated, and placed on a microinjector (Nanoject II Auto-Nanoliter Injector, Drummond Scientific Co.). 50 nl of nuclease-free water alone (control oocytes) or 50 nl of 0.6 μg μl^−1 RNA were injected under stereomicroscopic control. Injected oocytes were incubated for 46–72 h at 18 °C with twice-daily buffer changes before usage in experiments.
Drug uptake assays were performed as described previously[21],[22],[24],[34]. […] The direction of radio-labeled drug transport is here from the mostly acidic extracellular solution (pH 4.5 or 6.0, as indicated) into the oocyte cytosol (pH ∼ 7.2), which corresponds to the efflux of drug from the acidic digestive vacuole (pH 5.2) into the parasite cytoplasm (pH 7.2). The topology of PfCRT in the oolemma is such that both the N- and C-terminus face the extracellular milieu[3],[22]. In the parasite, the N- and C-terminus face the lumen of the digestive vacuole. CQ uptake kinetics were performed by incubating oocytes in ND96 buffer adjusted to a pH of 4.5, 5.0, 5.5, or 6.0 and supplemented with 50 nM [^3H]CQ and one of 7 different CQ concentrations (10 µM, 50 µM, 100 µM, 200 µM, 300 µM, 400 µM, 500 µM CQ). The reaction was stopped at the 60 min time point, which is in the linear uptake range[22],[34] (Supplementary Fig. 17). […] The radioactivity of each sample was measured using a liquid scintillation analyzer Tri-Carb 4910 TR (PerkinElmer). Oocytes that were injected with water instead of RNA were analyzed in parallel, representing the uptake of a drug by diffusion and/or endogenous permeation pathways. […]

The target of experiment [1] is T1, PfCRT variant CD2 (D24A, D57A, Y179A, F235A, D241A, E406A, D419A) (Plasmodium falciparum, UniProt Q9N623, A220S/D241A/D24A/D419A/D57A/E406A/F235A/I356T/K76T/M74I/N326S/N75E/Q271E/R371I/Y179A).
T1 sequence (Q9N623 1-424 D24A/D57A/M74I/N75E/K76T/Y179A/A220S/F235A/D241A/Q271E/N326S/I356T/R371I/E406A/D419A): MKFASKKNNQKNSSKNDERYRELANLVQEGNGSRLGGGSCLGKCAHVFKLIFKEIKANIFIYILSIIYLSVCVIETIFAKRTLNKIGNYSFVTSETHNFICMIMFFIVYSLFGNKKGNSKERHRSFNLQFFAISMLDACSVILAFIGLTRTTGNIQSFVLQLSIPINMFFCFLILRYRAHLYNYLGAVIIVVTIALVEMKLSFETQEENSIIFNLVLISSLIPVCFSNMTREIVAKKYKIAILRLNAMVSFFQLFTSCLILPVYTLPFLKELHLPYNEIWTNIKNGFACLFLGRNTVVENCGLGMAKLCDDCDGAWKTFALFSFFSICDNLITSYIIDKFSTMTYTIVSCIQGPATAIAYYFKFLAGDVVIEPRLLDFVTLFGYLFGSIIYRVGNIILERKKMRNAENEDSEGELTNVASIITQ
In words: CQ uptake assay, oocytes expressing CD2. Format: cell-based. The method, then: as §1, §2
Drug uptake assays were performed as described previously[21],[22],[24],[34]. […] The direction of radio-labeled drug transport is here from the mostly acidic extracellular solution (pH 4.5 or 6.0, as indicated) into the oocyte cytosol (pH ∼ 7.2), which corresponds to the efflux of drug from the acidic digestive vacuole (pH 5.2) into the parasite cytoplasm (pH 7.2). The topology of PfCRT in the oolemma is such that both the N- and C-terminus face the extracellular milieu[3],[22]. In the parasite, the N- and C-terminus face the lumen of the digestive vacuole. CQ uptake kinetics were performed by incubating oocytes in ND96 buffer adjusted to a pH of 4.5, 5.0, 5.5, or 6.0 and supplemented with 50 nM [^3H]CQ and one of 7 different CQ concentrations (10 µM, 50 µM, 100 µM, 200 µM, 300 µM, 400 µM, 500 µM CQ). The reaction was stopped at the 60 min time point, which is in the linear uptake range[22],[34] (Supplementary Fig. 17). For determination of the amount of drug uptake for each oocyte, the reaction medium was removed and the oocytes were washed three times with 2 ml of ice-cold ND96 buffer. Each oocyte was individually transferred to a scintillation vial containing 5% sodium dodecyl sulfate (200 μl) for lysis. The radioactivity of each sample was measured using a liquid scintillation analyzer Tri-Carb 4910 TR (PerkinElmer). Oocytes that were injected with water instead of RNA were analyzed in parallel, representing the uptake of a drug by diffusion and/or endogenous permeation pathways. The resulting value represents the “background“ level of drug accumulation in oocytes (in-depth discussion in[22]). […]

[2] abbreviates: F203A, 50 µM CQ, 1 h, mean ± SEM.
The mark [3] stands for this setting: pH 4.5, single replicates, Fig 1d left.
Setting [4] is: pH 6.0, single replicates, Fig 1d left.

For the compound `CCN(CC)CCCC(C)Nc1ccnc2cc(Cl)ccc12` (centres unmarked) [CQ, chloroquine], the “Activity at pH 4.5” value with PfCRT variant F203A (setting [2]) turned out to be 0.93 ± 0.19 pmol h-1 oocyte-1; in experiment [1] (CD2, 50 µM CQ, 1 h, mean ± SEM), 1.26 ± 0.05 pmol h-1 oocyte-1. The “Activity at pH 6.0” value in the experiment with PfCRT variant F203A (setting [2]) was 2.55 ± 0.14 pmol h-1 oocyte-1; in experiment [1] (CD2, 50 µM CQ, 1 h, mean ± SEM) it was 2.31 ± 0.23 pmol h-1 oocyte-1. The R-value in the experiment with PfCRT variant F203A (F203A, CQ transport at pH 4.5 / pH 6.0) was 0.36 ± 0.07; in experiment [1] (CD2, CQ transport at pH 4.5 / pH 6.0) it was 0.56 ± 0.05. Also, the “F203A transport activity pH 4.5” value in the experiment with PfCRT variant F203A (setting [3]) was 0.48 pmol oocyte-1 h-1 and 1.22 pmol oocyte-1 h-1 and 1.1 pmol oocyte-1 h-1. The “F203A transport activity pH 6.0” value with PfCRT variant F203A (setting [4]) is 2.29 pmol oocyte-1 h-1 and 2.47 pmol oocyte-1 h-1 and 2.88 pmol oocyte-1 h-1. For the same compound, the “CD2 transport activity pH 4.5” value in experiment [1] (setting [3]) was 1.18 pmol oocyte-1 h-1 and 1.21 pmol oocyte-1 h-1 and 1.38 pmol oocyte-1 h-1. Besides, the “CD2 R-value” in experiment [1] (pH 4.5 vs pH 6.0, Fig 1d left) was 0.68 and 0.46 and 0.54. The “CD2 transport activity pH 6.0” value in experiment [1] (setting [4]) was 1.74 pmol oocyte-1 h-1 and 2.62 pmol oocyte-1 h-1 and 2.56 pmol oocyte-1 h-1.
